Data published in article PMC6099635, “New Records of Potent In-Vitro Antidiabetic Properties of Dalbergia tonkinensis Heartwood and the Bioactivity-Guided Isolation of Active Compounds” (Molecules : A Journal of Synthetic Chemistry and Natural …, 2018).

Experiments:
Assay in all cases: colorimetric pNPG hydrolysis, […] nm
[1] = target: T1, Rice α-glucosidase (Type 4); assay type: biochemical, Oryza sativa; conditions: pNPG substrate; 0.1 M potassium phosphate pH 7; 37 °C; 20 min pre-incubation, 30 min reaction
T1 construct: gene Os06g0675700

[2] = target: T2, Saccharomyces cerevisiae (yeast) α-glucosidase; assay type: biochemical; conditions: pNPG substrate; 0.1 M potassium phosphate pH 7; 37 °C; 20 min pre-incubation, 30 min reaction
T2 construct: gene MAL12

[3] = target: T3, Rat α-glucosidase; assay type: biochemical; conditions: pNPG substrate; 0.1 M potassium phosphate pH 7; 37 °C; 20 min pre-incubation, 60 min reaction
T3 construct: gene Si; Sigma Aldrich preparation

## C[C@H]1O[C@H](O[C@H]2[C@H](O)[C@@H](O)[C@@H](O[C@H]3[C@H](O)[C@@H](O)C(O)O[C@@H]3CO)O[C@@H]2CO)[C@H](O)[C@@H](O)[C@@H]1N[C@H]1C=C(CO)[C@@H](O)[C@H](O)[C@H]1O (stereo partly drawn) [acarbose, reference compound]
[1]
  Inhibition Expressed as EC50 (mg/mL) / Acarbose: 0.031 ± 0.005 mg/mL
[2]
  Inhibition Expressed as EC50 (mg/mL) / Acarbose: 1.321 ± 0.048 mg/mL
[3]
  Inhibition Expressed as EC50 (mg/mL) / Acarbose: 0.121 ± 0.001 mg/mL

## COc1ccc(C2COc3cc(O)ccc3C2=O)c(OC)c1 (stereo not drawn) [compound 1, sativanone]
[1]
  Inhibition Expressed as EC50 (mg/mL) / Sativanone: 0.81 ± 0.023 mg/mL
[2]
  Inhibition Expressed as EC50 (mg/mL) / Sativanone: 0.23 ± 0.012 mg/mL
[3]
  Inhibition Expressed as EC50 (mg/mL) / Sativanone: 0.37 ± 0.022 mg/mL

## COc1ccc(-c2coc3cc(O)ccc3c2=O)cc1 [compound 2, formononetin]
[1]
  Inhibition Expressed as EC50 (mg/mL) / Formononetin: 0.98 ± 0.029 mg/mL
[2]
  Inhibition Expressed as EC50 (mg/mL) / Formononetin: 0.06 ± 0.002 mg/mL
[3]
  Inhibition Expressed as EC50 (mg/mL) / Formononetin: 0.23 ± 0.037 mg/mL
